Experimental findings from patent publication US7273865B2, “Thiazolopyridine” (Hoffmann-La Roche Inc., priority 2003, dated 2007) are described below.

Test [1] concerns the target T1, human adenosine A1 receptor (Homo sapiens, UniProt P30542).
T1 construct: expressed in transfected cells; host or cells: CHO cells, semliki forest virus expression system; membranes used
T1 sequence (P30542 1-326): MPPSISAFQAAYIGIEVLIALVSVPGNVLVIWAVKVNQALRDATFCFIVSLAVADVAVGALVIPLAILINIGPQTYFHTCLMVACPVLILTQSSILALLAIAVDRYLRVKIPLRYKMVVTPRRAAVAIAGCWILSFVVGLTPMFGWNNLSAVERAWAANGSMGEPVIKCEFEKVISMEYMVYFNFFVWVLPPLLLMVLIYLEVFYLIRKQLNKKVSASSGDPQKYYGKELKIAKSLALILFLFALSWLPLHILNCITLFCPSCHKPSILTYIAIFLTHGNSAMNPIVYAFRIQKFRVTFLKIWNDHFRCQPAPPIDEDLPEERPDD
Description: Human adenosine A1 receptor [3H]-DPCPX binding assay. As to conditions: recombinant receptor expressed in CHO cells, [3H]-DPCPX 0.6 nM, SPA; read-out: hA1 (converted). How it is done: (§1) The human adenosine A1 receptor was recombinantly expressed in Chinese hamster ovary (CHO) cells using the semliki forest virus expression system. Cells were harvested, washed twice by centrifugation, homogenized and again washed by centrifugation. The [^3H]-DPCPX (([propyl-3H]8-cyclopentyl-1,3-dipropyxanthine); 0.6 nM) binding assay was carried out in 96-well plates in the presence of (per well) approximately 2.5 μg of membrane protein, 0.5 mg of Ysi-poly-1-lysine SPA beads and 0.1 U adenosine deaminase in a final volume of 200 μl of buffer (containing 50 mM Tris, 120 mM NaCl, 5 mM KCl, 2 mM CaCl2 and 10 mM MgCl2 (pH 7.4)). Non-specific binding was defined using xanthine amine congener (XAC; 2 μM). Compounds were tested at 10 concentrations from 10 μM-0.3 nM. All assays were conducted in duplicate and repeated at least two times. Assay plates were incubated for 1 hour at room temperature before centrifugation and then bound ligand determined using a Packard Topcount scintillation counter. IC50 values were calculated using a non-linear curve fitting program and Ki values calculated using the Cheng-Prussoff equation.

Test [2] has as its target T2, human adenosine A2A receptor (Homo sapiens, UniProt P29274).
T2 construct: expressed in transfected cells; host or cells: CHO cells, semliki forest virus expression system; membranes used
Put plainly: Human adenosine A2A receptor [3H]-SCH-58261 binding assay. As to conditions: for Selectivity: hA2A versus hA1; for Ki: recombinant receptor expressed in CHO cells, [3H]-SCH-58261 1 nM, SPA, read-out: hA2A (converted). The procedure:
as §1, with “A2A” for “A1”, “[^3H]-SCH-58261 (Dionisotti et al., 1997, Br J Pharmacol 121, 353; 1” for “[^3H]-DPCPX (([propyl-3H]8-cyclopentyl-1,3-dipropyxanthine); 0.6”

T2 sequence (P29274 whole entry): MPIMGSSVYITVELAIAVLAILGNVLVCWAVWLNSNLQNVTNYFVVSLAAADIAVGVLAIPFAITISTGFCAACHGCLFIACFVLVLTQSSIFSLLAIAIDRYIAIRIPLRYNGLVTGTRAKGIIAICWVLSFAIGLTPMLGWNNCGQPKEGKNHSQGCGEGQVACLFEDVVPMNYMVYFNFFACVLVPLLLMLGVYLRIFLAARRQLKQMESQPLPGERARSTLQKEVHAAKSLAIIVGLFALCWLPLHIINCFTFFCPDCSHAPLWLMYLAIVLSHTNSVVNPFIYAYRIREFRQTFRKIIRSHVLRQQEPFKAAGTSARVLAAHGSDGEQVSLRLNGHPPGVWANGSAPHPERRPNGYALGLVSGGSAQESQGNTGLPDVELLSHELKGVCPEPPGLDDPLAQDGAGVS

On to `COc1cnc(N2CCOCC2)c2sc(NC(=O)c3ccc(F)cc3)nc12` [Example 1, 4-Fluoro-N-(7-methoxy-4-morpholin-4-yl-thiazolo[5,4-c]pyridin-2-yl)-benzamide], for which the Ki in test [1] is 1780 nM. Besides, in test [2], the Selectivity is listed as 420 and the Ki is 4.17 nM.

For `COc1ccc(C(=O)Nc2nc3c(OC)cnc(N4CCOCC4)c3s2)cc1` [Example 3, 4-Methoxy-N-(7-methoxy-4-morpholin-4-yl-thiazolo[5,4-c]pyridin-2-yl)-benzamide], the Ki in test [1] is 1910 nM. In addition, in test [2], the Selectivity is 384 and the Ki was 5.01 nM.

For `COc1cnc(N2CCOCC2)c2sc(NC(=O)c3ccnc(C)c3)nc12` [Example 4, N-(7-Methoxy-4-morpholin-4-yl-thiazolo[5,4-c]pyridin-2-yl)-2-methyl-isonicotinamide], the results for the Ki in test [1] and in test [2] were 5750 nM and 11.2 nM, respectively. This compound yielded a Selectivity in test [2] of 512.

For the compound `COc1cc(C(=O)Nc2nc3c(OC)cnc(N4CCOCC4)c3s2)ccn1` [Example 5, 2-Methoxy-N-(7-methoxy-4-morpholin-4-yl-thiazolo[5,4-c]pyridin-2-yl)-isonicotinamide], the Ki in test [1] is 6310 nM. Moreover, in test [2], the Selectivity is recorded as 489 and the Ki was 12.9 nM.

Take `COc1cnc(N2CCOCC2)c2sc(NC(=O)c3cccc(F)c3)nc12` [Example 6, 3-Fluoro-N-(7-methoxy-4-morpholin-4-yl-thiazolo[5,4-c]pyridin-2-yl)-benzamide]: in test [1], the Ki is 1660 nM. In test [2], the Selectivity is 312 and the Ki is 5.37 nM.

Take `COc1cccc(C(=O)Nc2nc3c(OC)cnc(N4CCOCC4)c3s2)c1` [Example 7, 3-Methoxy-N-(7-methoxy-4-morpholin-4-yl-thiazolo[5,4-c]pyridin-2-yl)-benzamide]: in test [1], the Ki is 1350 nM. Besides, in test [2], the Selectivity was 436 and the Ki was 3.09 nM.

As for `COc1ccc(C(=O)Nc2nc3c(OC)cnc(N4CCOCC4)c3s2)cc1OC` [Example 8, 3,4-Dimethoxy-N-(7-methoxy-4-morpholin-4-yl-thiazolo[5,4-c]pyridin-2-yl)-benzamide], in test [2], the Selectivity worked out at 535 and the Ki is 13.8 nM.

Turning to `COc1cnc(N2CCOCC2)c2sc(NC(=O)c3ccc4c(c3)OCO4)nc12` [Example 9, Benzo [1,3]dioxole-5-carboxylic acid (7-methoxy-4-morpholin-4-yl-thiazolo[5,4-c]pyridin-2-yl)-amide], the Ki in test [1] was 3800 nM. Also, in test [2], the Selectivity is listed as 527 and the Ki is 7.24 nM.

As to `COc1cnc(N2CCOCC2)c2sc(NC(=O)CC3CCOCC3)nc12` [Example 11, N-(7-Methoxy-4-morpholin-4-yl-thiazolo[5,4-c]pyridin-2-yl)-2-(tetrahydro-pyran-4-yl)-acetamide], the Ki in test [1] is 5010 nM. Further, in test [2], the Selectivity amounted to 310 and the Ki was 16.2 nM.

Regarding `COc1cnc(N2CCOCC2)c2sc(NC(=O)c3ccncc3)nc12` [Example 17, N-(7-Methoxy-4-morpholin-4-yl-thiazolo[5,4-c]pyridin-2-yl)-isonicotinamide], the values for the Ki in test [1] and in test [2] were 5620 nM and 21.9 nM, respectively. Besides, in test [2], the Selectivity is listed as 258.

As to `COc1cnc(N2CCOCC2)c2sc(NC(=O)c3ccnc(N4CC(O)C4)c3)nc12` [Example 18, 2-(3-Hydroxy-azetidin-1-yl)-N-(7-methoxy-4-morpholin-4-yl-thiazolo[5,4-c]pyridin-2-yl)-isonicotinamide], in test [2], the Selectivity is 868 and the Ki was 7.94 nM.

For `COc1cnc(N2CCOCC2)c2sc(NC(=O)c3ccnc(N4CC(OC)C4)c3)nc12` [Example 19, 2-(3-Methoxy-azetidin-1-yl)-N-(7-methoxy-4-morpholin-4-yl-thiazolo[5,4-c]pyridin-2-yl)-isonicotinamide], the Ki in test [1] was 1910 nM; in test [2], 5.5 nM. The Selectivity in test [2] worked out at 347.

As for `COc1ccc(C(=O)Nc2nc3c(OC)cnc(N4CCOCC4)c3s2)cn1` [Example 21, 6-Methoxy-N-(7-methoxy-4-morpholin-4-yl-thiazolo[5,4-c]pyridin-2-yl)-nicotinamide], in test [2], the Selectivity stood at 519 and the Ki was 14.1 nM.

In the case of `COc1cnc(N2CCOCC2)c2sc(NC(=O)c3ccnc(N4CCOCC4)c3)nc12` [Example 22, N-(7-Methoxy-4-morpholin-4-yl-thiazolo[5,4-c]pyridin-2-yl)-2-morpholin-4-yl-isonicotinamide], in test [1], the Ki is 6460 nM. For the same compound, in test [2], the Selectivity came to 1647 and the Ki was 3.89 nM.

As to `COc1cnc(N2CCOCC2)c2sc(NC(=O)c3ccc(N4CCOCC4)cc3)nc12` [Example 29, N-(7-Methoxy-4-morpholin-4-yl-thiazolo[5,4-c]pyridin-2-yl)-4-morpholin-4-yl-benzamide], in test [2], the Selectivity is on record as 572 and the Ki is 12.6 nM.

Take `COc1cnc(N2CCOCC2)c2sc(NC(=O)c3cccc(N4CCOCC4)c3)nc12` [Example 30, N-(7-Methoxy-4-morpholin-4-yl-thiazolo[5,4-c]pyridin-2-yl)-3-morpholin-4-yl-benzamide]: the Ki in test [1] is 7080 nM. Also, in test [2], the Selectivity worked out at 1716 and the Ki is 4.07 nM.

On to `COCCN(C)Cc1ccc(C(=O)Nc2nc3c(OC)cnc(N4CCOCC4)c3s2)cc1` [Example 31, 4-{[(2-Methoxy-ethyl)-methyl-amino]-methyl}-N-(7-methoxy-4-morpholin-4-yl-thiazolo[5,4-c]pyridin-2-yl)-benzamide], for which the Ki in test [1] was 6030 nM; in test [2] it was 13.8 nM. The same compound returned a Selectivity in test [2] of 441.

`COc1cnc(N2CCOCC2)c2sc(NC(=O)c3ccnc(CN4CCOCC4)c3)nc12` [Example 33, N-(7-Methoxy-4-morpholin-4-yl-thiazolo[5,4-c]pyridin-2-yl)-2-morpholin-4-ylmethyl-isonicotinamide]: in test [2], the Selectivity is on record as 291 and the Ki is 25.1 nM.

In the case of `COc1cnc(N2CCOCC2)c2sc(NC(=O)N3CCC(CO)CC3)nc12` [Example 36, 4-Hydroxymethyl-piperidine-1-carboxylic acid (7-methoxy-4-morpholin-4-yl-thiazolo[5,4-c]pyridin-2-yl)-amide], in test [1], the Ki is 3160 nM. In addition, in test [2], the Selectivity came to 468 and the Ki was 6.76 nM.

As for `COc1cnc(N2CCOCC2)c2sc(NC(=O)N3CCC4(CCN(C)C4=O)CC3)nc12` [Example 37, 2-Methyl-1-oxo-2,8-diaza-spiro [4.5] decane-8-carboxylic acid (7-methoxy-4-morpholin-4-yl-thiazolo[5,4-c]pyridin-2-yl)-amide], in test [2], the Selectivity was determined as 346 and the Ki is 20.9 nM.

In the case of `COc1cnc(N2CCOCC2)c2sc(NC(=O)c3ccc(CN4CCOCC4)cc3)nc12` [Example 39, N-(7-Methoxy-4-morpholin-4-yl-thiazolo[5,4-c]pyridin-2-yl)-4-morpholin-4-ylmethyl-benzamide], in test [2], the Selectivity was 446 and the Ki was 16.2 nM.

As for `COc1cnc(N2CCOCC2)c2sc(NC(=O)N3CCC4(CCCO4)CC3)nc12` [Example 40, 1-Oxa-8-aza-spiro[4.5]decane-8-carboxylic acid (7-methoxy-4-morpholin-4-yl-thiazolo[5,4-c]pyridin-2-yl)-amide], the Ki is 5890 nM in test [1] and 15.5 nM in test [2]. Besides, the Selectivity in test [2] was 387.

On to `COc1cnc(N2CCOCC2)c2sc(NC(=O)N3CCC(C)(CO)CC3)nc12` [Example 43, 4-Hydroxymethyl-4-methyl-piperidine-1-carboxylic acid (7-methoxy-4-morpholin-4-yl-thiazolo[5,4-c]pyridin-2-yl)-amide], for which the results for the Ki in test [1] and in test [2] were 7080 nM and 11.7 nM, respectively. Also, in test [2], the Selectivity was determined as 593.
